row,Compound,melting point [°C]
1,CNC(=O)NCCn1c(-c2ccc(CN3CCOCC3)c(OC)c2)cs/c1=N\c1cccc(F)c1F [Example 32],150 to 153
2,CNC(=O)NCCn1c(-c2ccc(CN3CCOCC3)c(OC)c2)cs/c1=N\c1ccc(F)cc1F [Example 33],164 to 169
3,CNC(=O)NCCn1c(-c2ccc(CN3CCOCC3)cc2OC)cs/c1=N\c1cccc(F)c1 [Example 28],163 to 166
4,CNC(=O)NCCn1c(-c2ccc(CN3CCOCC3)cc2C)cs/c1=N\c1ccc(F)cc1C [Example 24],122 to 125
5,CNC(=O)NCCn1c(-c2ccc(CN3CCOCC3)c(OC)c2)cs/c1=N\c1cccc(F)c1 [Example 31],170 to 174
6,CNC(=O)NCCn1c(-c2ccc(CN3CCOCC3)cc2C)cs/c1=N\c1cccc(F)c1F [Example 26],132 to 135
7,CNC(=O)NCCn1c(-c2ccc(CN3CCOCC3)cc2C)cs/c1=N\c1cccc(F)c1 [Example 23],119 to 121
8,CNC(=O)NCCn1c(-c2ccc(CN3CCOCC3)cc2C)cs/c1=N\c1ccc(F)cc1F [Example 25],154 to 160
9,CNC(=O)NCCn1c(-c2ccc(CCN3CCOCC3)cc2)cs/c1=N\c1cccc(F)c1F [Example 46],155 to 164
10,CNC(=O)NCCn1c(-c2ccc(CN3CCOCC3)cc2OC)cs/c1=N\c1cccc(F)c1F [Example 30],161 to 165
11,CNC(=O)NCCn1c(-c2ccc(C(=O)NC3CC3)cc2)cs/c1=N\c1cccc(F)c1 [Example 64],179 to 185

# The next lines start with the values.
row,melting point [°C],Compound
1,175 to 178,CCNC(=O)NCCn1c(-c2ccc(C(=O)N3CCOCC3)cc2)cs/c1=N\c1ccc(C)c(F)c1 [Example 55]
2,172 to 177,CCNC(=O)NCCn1c(-c2ccc(C(=O)N3CCOCC3)cc2)cs/c1=N\c1cccc(F)c1 [Example 57]
3,170 to 176,CCNC(=O)c1ccc(-c2cs/c(=N\c3cccc(F)c3)n2CCNC(=O)NC)cc1 [Example 60]
4,185 to 192,CCNC(=O)c1ccc(-c2cs/c(=N\c3cccc(Cl)c3)n2CCNC(=O)NC)cc1 [Example 63]
5,179 to 180,CCNC(=O)NCCn1c(-c2ccc(C(=O)N3CCOCC3)cc2)cs/c1=N\c1ccc(F)cc1F [Example 54]
6,182 to 186,CCNC(=O)NCCn1c(-c2ccc(C(=O)N3CCOCC3)cc2)cs/c1=N\c1cccc(Cl)c1 [Example 56]
7,144 to 150,CNC(=O)NCCn1c(-c2ccc(CN3CCOCC3)cc2OC)cs/c1=N\c1ccc(C)c(F)c1 [Example 29]
8,183 to 186,CCNC(=O)NCCn1c(-c2ccc(C(=O)N3CCOCC3)cc2)cs/c1=N\c1ccc(F)c(C)c1 [Example 53]
9,171 to 174,CNC(=O)NCCn1c(-c2ccc(CN3CCOCC3)cc2C)cs/c1=N\c1ccc(C)c(F)c1 [Example 22]
10,166 to 172,CNC(=O)NCCn1c(-c2ccc(CCN3CCOCC3)cc2)cs/c1=N\c1ccc(F)cc1F [Example 47]
11,151 to 152,CNC(=O)NCCn1c(-c2ccc(CN3CCOCC3)c(C)c2)cs/c1=N\c1cccc(F)c1 [Example 27]
12,196 to 203,CCNC(=O)NCCn1c(-c2ccc(C(=O)N3CCOCC3)cc2)cs/c1=N\c1ccc(F)c(C)c1 [Example 58]
13,154 to 160,CNC(=O)NCCn1c(-c2ccc(CCN3CCOCC3)cc2)cs/c1=N\c1cccc(F)c1 [Example 45]

# Source: patent publication US20110034466A1, “NOVEL FIVE-MEMBERED RING COMPOUND” (priority 2008, published 2011)
